Reference: patent US20130217871A1, “CONJUGATES COMPRISING HYDROXYALKYL STARCH AND A CYTOTOXIC AGENT AND PROCESS FOR THEIR PREPARATION” (priority 2010, published 2013)
Marks after values point to notes of the source that are not given here.

How the values were obtained:
[1] = system: human large cell lung carcinoma LXFL-529; assay: Tumor growth inhibition, s.c. LXFL-529 xenograft in nude mice; format: in vivo, NMRI nu/nu mice; details: Table 14; for Tumor volume mm^3 (d 14): day 14; for RTV T/C optimum [%]: optimum day in cell
Source text: Mouse strain: NMRI nu/nu, female Animals supplied by: Charles River, Germany Age of mice at implantation: 5-7 weeks
The tumor xenografts LXFL-529 (Fiebig H H, Berger D P, Dengler W A, Wallbrecher E, Winterhalter B R: Combined In Vitro/In Vivo Test Procedure with Human Tumor Xenografts for New Drug Development. Contrib. Oncol., Basel, Karger, 1992, Vol. 42, pp 321-351) used in this study were derived from surgical specimen from patients treated at the University Hospital in Freiburg, Germany, and directly implanted into nude mice. Prior to surgery, most of the patients had not received any chemotherapy.
Tumor fragments were obtained from xenografts in serial passage in nude mice. After removal from donor mice, tumors were cut into fragments (4-5 mm diameter) and placed in PBS until subcutaneous implantation. Recipient mice were anaesthetized by inhalation of isoflurane. A small incision was made in the back and one tumor fragment per animal was transplanted with tweezers. The mice were monitored daily.
At randomization, tumor-bearing animals were stratified according to tumor volume into treatment and vehicle (control) groups. Only animals carrying one tumor of appropriate size (approximately 50-250 mm^3) were considered for randomization. Mice were randomized when the required number of mice qualified for randomization. The day of randomization was designated as day 0, which was also the first day of dosing.
(§1) All test items were formulated in 0.9% NaCl solution and given as i.v. bolus injection despite everolimus, which was given per oral.
(§2) Measurement of tumor volume and body weight as well as calculations of relative tumor volumes were carries out analogue to the procedure described in 1.3.

[2] = Toxicity in ASPC-1 tumor-bearing nude mice (body weight change, toxic death, blood counts); format: in vivo, NMRI:nu/nu mice
Description: (§3) At palpable tumor size (30-100 mm^3) treatment started. The application volume was 0.2 ml/20 g mouse body weight. The test compounds, the vehicle controls and the reference compounds were all given intravenously (i.v.).
(§4) Tumor growth inhibition was used as therapeutic parameter. Additionally, body weight change was determined as signs for toxicity (particularly, potential hematological or gastrointestinal side effects).
Individual body weights of mice were determined twice weekly and mean body weight per group was related to the initial value in percent (body weight change, BWC).
On the day of necropsy mice were sacrificed by cervical dislocation and inspected for gross organ changes.

[3] = system: human pancreas carcinoma ASPC-1; assay: Tumor growth inhibition, s.c. ASPC-1 xenograft in nude mice; format: in vivo, NMRI:nu/nu mice; details: 60 mg/kg/inj. i.v.
Source text: The human pancreas carcinoma ASPC-1 was used as s.c. xenotransplantation model in immunodeficient female NMRI:nu/nu mice.
The cells were obtained from ATCC and are cryo-preserved within the EPO tumor bank. They were thawed, expanded in vitro and transplanted as cell suspension subcutaneously (s.c.) in female NMRI:nu/nu mice. The tumor line ASPC-1 is used for testing new anticancer drugs or novel therapeutic strategies. It was therefore selected for this study.
For experimental use 10^7 tumor cells/mouse from the in vitro passage were transplanted s.c. into the flank of each of 10 mice/group at day 0.
as §3, §4
Tumor diameters were measured twice weekly with a caliper. Tumor volumes were calculated according to V=(length x (width)^2)/2. For calculation of the relative tumor volume (RTV) the tumor volumes at each measurement day were related to the day of first treatment. At each measurement day the median and mean tumor volumes per group and also the treated to control (T/C) values in percent were calculated (Tables 11-13).
Descriptive statistics were performed on the data of body weight and tumor volume. […] Statistical evaluation was performed with the U-test of Mann and Whitney with a significance level of p≦0.05, using the Windows program […] 6.
All Gemcitabine-conjugates were stored in a freeze-dried form at −20° C. until use. Solutions were prepared immediately before injection by solving the conjugates in saline solution by vortexing in combination with centrifugation until a clear solution of the necessary concentration of the drug was obtained.
Gemcitabine (Gemzar®, charge A4781790 200 mg) was obtained from Lilly Deutschland GmbH and was stored in the dark at −20° C. until use. The final solution of Gemzar® was prepared immediately before injection by mixing the appropriate volume of the original stock solution (200 mg) with saline (0.9%, infusion solution, Ch.-Nr 0205A231, B. Braun Melsungen AG, Germany).

[4] = Toxicity in LXFL-529 tumor-bearing nude mice (mortality, body weight change); format: in vivo; details: Table 14; days 0, 3, 7, 10 (20 mg/kg); 5 mice; at day 13
Description: All experiments were conducted according to the guidelines of the German Animal Welfare Act (Tierschutzgesetz). Animal health was examined prior to tumor implantation and randomization to ensure that only animals without any symptoms of disease were selected to enter testing procedures. During the experiments, animals were monitored daily regarding tumor burden, general condition, feed and water supply.
as §1, §2

[5] = days 0, 3 (10 mg/kg), 7, 10, 14 (15 mg/kg) p.o.
[6] = Table 13, days 7, 14, 21, day 27
[7] = days 0, 3, 7, 10 (20 mg/kg) i.v.

## CO[C@H]1C[C@@H]2CC[C@@H](C)[C@@](O)(O2)C(=O)C(=O)N2CCCC[C@H]2C(=O)O[C@H]([C@H](C)C[C@@H]2CC[C@@H](OCCO)[C@H](OC)C2)CC(=O)[C@H](C)/C=C(\C)[C@@H](O)[C@@H](OC)C(=O)[C@H](C)C[C@H](C)/C=C/C=C/C=C/1C [Everolimus]
[1]; [5]
  Tumor volume mm^3 (d 14): 926.1 mm^3
  RTV T/C optimum [%]: 53.9 (d 14) %

## Nc1ccn([C@@H]2O[C@H](CO)[C@@H](O)C2(F)F)c(=O)n1 [Gemcitabine]
[2]; Table 11, 60 mg/kg/inj. i.v., day 13
  Platelets × 10^6/ml (at day 13): 915 +/− 105* × 10^6/ml
[2]; Table 11, white blood cell count, 60 mg/kg/inj. i.v., day 13
  WBC × 10^6/ml (at day 13): 5.22 +/− 1.47* × 10^6/ml
[2]; Table 12, 60 mg/kg/inj. i.v., 8 treatments, 8 mice, deaths at d 15, d 18
  Toxic death (at day): 2
[2]; Table 12, body weight change, 60 mg/kg/inj. i.v., at day 17
  BWC [%] (at day): −15%
[2]; mouse, in vivo, iv, 60 mg/kg
  BWC [%] (at day): −2.4 (9) %
[3]; Table 11, 9 injections, optimum at day 36
  RTV T/C (%) Optimum (at day): 41.4%
[3]; Table 11, days 9, 13, 16, 20, 23, 27, 30, 34, 40, day 44
  Tumor volume cm^3/d 44: 0.272 +/− 0.119* cm^3
[3]; Table 12, day 28
  Tumor volume cm^3/d 28: 0.159 +/− 0.058* cm^3
[3]; Table 12, optimum at day 28
  RTV T/C (%) Optimum (at day): 23.6%
[3]; [6]
  RTV T/C (%) d 27: 55.1%
  Tumor volume cm^3/d 27: 0.480 +/− 0.317 cm^3

## CO[C@H]1C[C@@H]2CC[C@@H](C)[C@@](O)(O2)C(=O)C(=O)N2CCCC[C@H]2C(=O)O[C@H]([C@H](C)C[C@@H]2CC[C@@H](OC(=O)C(C)(CO)CO)[C@H](OC)C2)CC(=O)[C@H](C)/C=C(\C)[C@@H](O)[C@@H](OC)C(=O)[C@H](C)C[C@H](C)/C=C/C=C/C=C/1C [Temsirolimus]
[1]; [7]
  Tumor volume mm^3 (d 14): 1073.7 mm^3
  RTV T/C optimum [%]: 57.1 (d 10) %
[4]
  Mortality (at day): 1 (13)
